Test results taken from patent US20220127580A1, “COMPOSITIONS AND METHODS FOR REPROGRAMING NON-HEPATOCYTE CELLS INTO HEPATOCYTE CELLS” (priority 2019, published 2022).
Like-named read-outs stand apart in the source and are kept apart here.

What was measured:
[1] = system: CYP1A2
Experimental: (§1) Vehicle-treated groups were used to determine the basal activity. To measure the induced activity of PHHs, PHHs were cultured and induced under sandwich methods.

[2] = system: HBV; assay: HBV infection of hiHeps, response to anti-HBV compounds; assay type: cell-based
[3] = cited from earlier work
[4] = system: hiHeps; assay: Measurements of hepatic clearance in hiHeps suspension
Experimental: Briefly, a 1×10^6 cells/ml cell suspension and 2× drug solutions were prepared in incubation medium (William's E medium, 10 mM HEPES [pH 7.4], and 1% GlutaMAX). Reactions were started by adding 500 μl of drug solutions to 500 ul of hiHeps, giving a final substrate concentration of between 1 and 2 μM.
These concentrations were selected to be below the Km for most substrates but to still have sufficient analytical sensitivity. Reactions were performed in an orbital shaker in an incubator at 37° C. Then, 80 μl aliquots were removed at 0, 15, 30, 60, 90, 120, 180 and 240 minutes, and samples were quenched in 240 μl of methanol containing an isotope-labeled reference and frozen at −80° C. The substrates were quantified using the validated traditional LC-MS/MS methods described above. Assays were performed in triplicate.
The slope (−k) of the linear regression from the log [substrate] versus time plot was determined. […] No correction factor was made for any differential in vitro and in vivo binding, and the distribution of the drug between the plasma and blood was assumed to be unity.

[5] = system: hiHeps
[6] = system: HepG2 cells; assay type: cell-based; settings: human
Experimental: For the toxicity assay, hiHeps, HepG2 cells and PHHs were cultured in 96-well or 384-well plates. Compounds with 7-8 concentration dilutions were prepared in DMEM with 3% FBS to test HepG2 cells or in HCM to test PHHs and hiHeps. The final DMSO concentration under all conditions was consistent. The detailed information of the tested compounds is listed in Table 7 ((Seglen, et. Al., Methods in Cell Biology 13, 29-83 (1976)), Zhong et. Al., Clin Chim Acta. 412, 1905-1911 (2011))).
Compounds were tested in bipartite in a dilution series by half-log concentration increments. […] After 1-4 hour chromogenic reaction in the incubator, the absorbance at 450 nm was read using a SpectraMax i3× (Molecular Devices). Image data were analyzed online using the Columbus Image Data Storage and Analysis System (PerkinElmer) with the following steps: (1) identification and counting of nuclei; (2) identification and counting of live cells labeled by CellTrace™ Calcein Red-Orange AM; and (3) identification and counting of live cells labeled by MitoTracker™ Deep Red FM. […] The cellular viability of each parameter was expressed as the live cell ratio and normalized to the negative control. The TC50 values of these four parameters were calculated separately, and the minimum TC50 value was used as the final TC50.

[7] = system: CYP2B6
Experimental: as §1

[8] = Toxicity assay in hiHeps (TC50); assay type: cell-based, human; settings: human, hiHeps, 24 hours; values rounded for ease of use
Experimental: (§2) For the toxicity assay, hiHeps, HepG2 cells and PHHs were cultured in 96-well or 384-well plates. Compounds with 7-8 concentration dilutions were prepared in DMEM with 3% FBS to test HepG2 cells or in HCM to test PHHs and hiHeps. The final DMSO concentration under all conditions was consistent.
(§3) Compounds were tested in bipartite in a dilution series by half-log concentration increments. After the cells were treated with compounds for 24 hours, the supernatant was discarded and modified WEM (William's E medium supplemented with 2% B27 and 1% GlutaMAX) containing fluorescent probes was added to cells. […] After incubation for 30 minutes, the supernatant was discarded and cells were washed twice. Images were acquired using the Operetta High-Content Imaging System (PerkinElmer) with a 10× objective. […] After 1-4 hour chromogenic reaction in the incubator, the absorbance at 450 nm was read using a SpectraMax i3× (Molecular Devices). Image data were analyzed online using the Columbus Image Data Storage and Analysis System (PerkinElmer) with the following steps: (1) identification and counting of nuclei; (2) identification and counting of live cells labeled by CellTrace™ Calcein Red-Orange AM; and (3) identification and counting of live cells labeled by MitoTracker™ Deep Red FM. The viability of each parameter transformed from image data and the CCK-8 assay data were entered into Excel. The cellular viability of each parameter was expressed as the live cell ratio and normalized to the negative control. The TC50 values of these four parameters were calculated separately, and the minimum TC50 value was used as the final TC50.

[9] = system: hiHeps; assay: Toxicity assay in hiHeps (TC50); assay type: cell-based, human
Experimental: as §2, §3

[10] = hiHeps suspension, substrate 1 μM, parent disappearance
[11] = scaled from hiHeps CLint, well stirred model, human

Molecule: O=c1cc(-c2ccccc2)oc2ccc3ccccc3c12 [β-naphthoflavone]
- induced activity of CYP1A2 [1]: could be induced

Molecule: C=C1[C@H](CO)[C@@H](O)C[C@@H]1n1cnc2c(=O)[nH]c(N)nc21 [entecavir]
- inhibition of HBV-DNA ([2]; HBV-infected hiHeps, LAM 1 μM, ETV 0.5 μM, especially during prolonged treatment): greatly inhibited

Molecule: Cc1ncc2n1-c1ccc(Cl)cc1C(c1ccccc1F)=NC2 [Midazolam]
- Observed CLh in vivo ([3]; observed in vivo, previous reports): 5.3
- In vitro Clint hiHeps by ([4]; human, pH 7.4): 2.8 μL/min/10^6
- Scaled in vivo CLh by hiHeps ([4]; human, pH 7.4): 5.3 ml/mim/kg

Molecule: Cc1c(OCC(F)(F)F)ccnc1C[S+]([O-])c1nc2ccccc2[nH]1 (centres unmarked) [lansoprazole]
- induced activity of CYP1A2 [1]: could be induced

Molecule: CC(=O)N1CCN(c2ccc(OCC3COC(Cn4ccnc4)(c4ccc(Cl)cc4Cl)O3)cc2)CC1 (centres unmarked) [ketoconazole]
- rescue from rifampin-increased toxicity of AFB1 and flutamide [5]: rescued

Molecule: interferon-alpha
- effect on all major HBV markers ([2]; HBV-infected hiHeps, 1000 U/mL after infection): inhibitory effect
- IFN-stimulated genes expression ([2]; hiHeps, 1000 U/mL): upregulation

Molecule: CC(C)C(=O)Nc1ccc([N+](=O)[O-])c(C(F)(F)F)c1 [flutamide]
- toxicity after induction with rifampin [5]: increased after induction with rifampin
- cell viability [6]: 100%

Molecule: CCC1(c2ccccc2)C(=O)NC(=O)NC1=O [Phenobarbital]
- induced activity of CYP2B6 [7]: could be induced

Molecule: CO[C@H]1/C=C/O[C@@]2(C)Oc3c(C)c(O)c4c(O)c(c(/C=N/N5CCN(C)CC5)c(O)c4c3C2=O)NC(=O)/C(C)=C\C=C\[C@H](C)[C@H](O)[C@@H](C)[C@@H](O)[C@@H](C)[C@H](OC(C)=O)[C@@H]1C [rifampin]
- CC50 at 24 h [8]: 100 µM

Molecule: CN(C)CCCN1c2ccccc2Sc2ccc(Cl)cc21 [chlorpromazine]
- CC50 at 24 h [8]: ~25 µM

Molecule: O=C(O)Cc1ccccc1Nc1c(Cl)cccc1Cl [Diclofenac]
- Observed CLh in vivo ([3]; in vivo): 7.6
- In vitro Clint hiHeps by [4, 10]: 4.5 μL/min/10^6
- Scaled in vivo CLh by hiHeps [4, 11]: 7.4 ml/mim/kg

Molecule: Cc1c(C)c2c(c(C)c1O)CCC(C)(COc1ccc(CC3SC(=O)NC3=O)cc1)O2 (centres unmarked) [troglitazone]
- chronic toxicity (cell death) [9]: caused extensive cell death

Molecule: CCOc1ccc(NC(C)=O)cc1 [Phenacetin]
- In vitro Clint hiHeps by [4, 10]: 18.3 μL/min/10^6
- Scaled in vivo CLh by hiHeps [4, 11]: 14.1 ml/mim/kg

Molecule: C=CCN1CC[C@]23c4c5ccc(O)c4O[C@H]2C(=O)CC[C@@]3(O)[C@H]1C5 [Naloxone]
- In vitro Clint hiHeps by [4, 10]: 14.2 μL/min/10^6
- Scaled in vivo CLh by hiHeps [4, 11]: 13 ml/mim/kg

Molecule: aflatoxin B1
- toxicity after induction with rifampin [5]: increased after induction with rifampin
